Results taken from the NIST ThermoML archive (doi:10.1016/j.tca.2017.09.013).
Numbers after ± are expanded uncertainties.

Key:
[1] = Molar enthalpy of transition or fusion; conditions: Crystal; DSC
[2] = molar heat capacity at constant pressure; conditions: 101.33 kPa, Metastable liquid, Small sample (50 mg) DSC

## Nc1cc[nH]c(=O)n1 [4-amino-2-hydroxypyrimidine]
Crystal, DTA
  Normal melting temperature: 334 ± 3 °C
Glass, DSC
  Glass transition temperature: 115 ± 3 °C
[1]
  Molar enthalpy of transition or fusion: 8.34 ± 0.55 kcal/mol
[2]; 408 K
  molar heat capacity at constant pressure: 268 ± 36 J/K/mol
[2]; 413 K
  molar heat capacity at constant pressure: 269 ± 38 J/K/mol
[2]; 418 K
  molar heat capacity at constant pressure: 271 ± 40 J/K/mol
[2]; 423 K
  molar heat capacity at constant pressure: 272 ± 42 J/K/mol
[2]; 428 K
  molar heat capacity at constant pressure: 274 ± 44 J/K/mol

## c1ccc2cc3ccccc3cc2c1 [anthracene]
[1]
  Molar enthalpy of transition or fusion: 6.52 ± 0.693 kcal/mol
